Test results reported in the NIST ThermoML archive (doi:10.1016/j.fluid.2014.06.010).
± gives the expanded uncertainty stated by the source.

Details: Liquid; Closed cell (Static) method

Structure (SMILES)	Normal boiling temperature [°C]
CC(O)C(=O)O (configuration not stated) [2-hydroxypropanoic acid]	125.1 ± 0.2
CC(=O)CC(C)C [4-methylpentan-2-one]	119.2 ± 0.2
